This is an account of results in paper PMC12040169 (PLOS Biology, 2025).

The series in a line: in vitro. Conditions: human, hela cells, % viability.

A word on the viability: it is a read-out of living cells in per cent, often relative to untreated cells. As to `CC(=O)N1CCC(N[C@H]2C[C@@H](Cc3cc(CN4CCCCC4)on3)C2(C)C)CC1` [CBK289699], the viability at 28.5 h, 10 µM is 89%.

As to `O[C@@]1(c2ccccn2)CC[C@H]2CN(Cc3ccccc3F)C[C@H]21` [CBK283001], the viability at 28.5 h, 10 µM amounted to 94.3%.

On to `CCC(C)(C)c1ccc(S(=O)(=O)NCCCN2CCCC2)cc1` [CBK044126], for which the viability at 28.5 h, 10 µM is 95.8%. Consider `COc1c(C)cnc(COC(=O)N2C[C@@H](C)O[C@@H](C)C2)c1C` [CBK200143], for which the viability at 28.5 h, 10 µM turned out to be 96.2%. Take `Cn1cc(-c2nc(C(=O)NCC3CCN(c4ccccc4)C3)cs2)cn1` (centres unmarked) [CBK305633]: the viability at 28.5 h, 10 µM was 84.8%. Same read-out and setting: the result for `C=CCNc1nccnc1-c1ccc(O)cc1` [CBK036898] reads 99.6%; that for `N#Cc1sc(-c2ccc(F)cc2)cc1NC(=O)c1cccc([N+](=O)[O-])c1` [CBK066845], 93.3%; that for `CN(C(=O)c1cccn1C)C1CCN(c2ncnc3ccccc23)CC1` [CBK306110], 91.8%. Consider `Cc1ccc(S(=O)(=O)NCCC(=O)NO)cc1` [CBK023472], for which the viability at 28.5 h, 10 µM turned out to be 110%.

Take `Cc1cccc(-c2nc(CN3CCOCC3)cs2)c1` [CBK270299]: the viability at 28.5 h, 10 µM was determined as 103%. The same measure, in the same setting: the result for `CCc1c(C)nc2nnc(NC(=O)C(F)(F)F)n2c1O` [CBK020762] reads 102%. The same measure, in the same setting: the result for `O=C(NCCN1CCc2ccccc21)C1CC2C=CC1O2` (centres unmarked) [CBK283158] reads 96.2%. With `CC(C)(Oc1ccc(Cl)cc1)C(=O)Nc1ccc(CN2C(=O)CNC2=O)cc1` [CBK296668], the viability at 28.5 h, 10 µM was 103%. On the same count and under the same terms, for `COc1ccc(C2C(C(C)=O)=C(O)C(=O)N2CCC(=O)O)cc1` (centres unmarked) [CBK263763] the value was 97.3%; for `O=C(NCc1ccccn1)c1cc(-c2ccc(Cl)cc2)on1` [CBK116558], 83.8%. Same read-out and setting: the result for `COc1ccc(OC(=O)C2COc3ccccc3O2)cc1` (centres unmarked) [CBK131816] reads 100%; that for `CN(CCN1CCCCC1)C(=O)c1cc2ccc(N(C)C)cc2[nH]1` [CBK281830], 107%.

In the case of `COc1ccc(C(NC(=O)C2CCN(C(=O)NC(C)(C)C)CC2)c2ccccn2)cc1` (centres unmarked) [CBK060298], the viability at 28.5 h, 10 µM came to 112%.

As for `Cc1cccc(Nc2ncc(Cc3ccccc3C)s2)n1` [CBK287849], the viability at 28.5 h, 10 µM was determined as 94.8%. As to `Fc1ccc(-c2cc(CC3(NCc4ccc5c(c4)OCO5)COC3)no2)cc1` [CBK289654], the viability at 28.5 h, 10 µM came out at 109%.

In the case of `CC(C)(C)c1ccc(S(=O)(=O)N2CCCC[C@H]2COC(=O)CCC(=O)O)cc1` [CBK200063], the viability at 28.5 h, 10 µM stood at 117%. The same measure, in the same setting: the result for `c1cc2[nH]ccc2c(N2CCNCC2)n1` [CBK051673C] reads 90.7%; that for `CC1=C[C@@H](CO)[C@H](C(C)C)C[C@H]1Cc1nnc(-c2ccc(N(C)C)cc2)o1` [CBK289224], 65%; that for `C=CCN(C(=S)NCc1ccc2c(c1)OCO2)C1CCCCC1` [CBK200037], 97.9%. With `COc1cc(C(=O)NCCN2CCCC2)ccc1Nc1cncc(-c2ccc(O)cc2)n1` [CBK122661], the viability at 28.5 h, 10 µM was 96%.

As to `COCc1cc(-c2ccc(C(=O)N3CCN(C)CC3)nc2)ccc1OCC1CCN(C(=O)OC(C)(C)C)CC1` [CBK174511], the viability at 28.5 h, 10 µM stood at 84%. On to `COc1cccc(-c2ccc(C(=O)NCc3ccccc3SC)c(N3CCN(C(=O)c4ccco4)CC3)n2)c1` [CBK106025], for which the viability at 28.5 h, 10 µM was 94.3%.

For `CC(=O)Nc1nnc(-c2ccc(Cl)cc2)s1` [CBK287331], the viability at 28.5 h, 10 µM turned out to be 94.4%.

In the case of `CCc1nc2ccc(C(=O)N3CCN(c4ccccc4)CC3)cn2c1N(C)Cc1ccc(OC)cc1` [CBK145584], the viability at 28.5 h, 10 µM stood at 85.4%.

For the compound `CN(C)CCN1CCN(c2nc(Br)cn3ccnc23)CC1` [CBK037501], the viability at 28.5 h, 10 µM was 91.3%. In the case of `CSc1nc(O)c(C(c2ccc(C)cc2)c2c(O)nc(SC)nc2O)c(O)n1` [CBK265313], the viability at 28.5 h, 10 µM stood at 90.3%. The same measure, in the same setting: the result for `Cc1nc(-c2ccc(S(=O)(=O)N3CCC(Cc4ccccc4)CC3)cc2)cs1` [CBK265494] reads 108%; that for `Cc1cc(C(=O)O)ccc1NC(=O)CCCC(=O)O` [CBK267917], 90.8%.

As for `c1ccc2c(c1)/C(=N/OCCCN1CCCCC1)CC21CCCCC1` [CBK013321], the viability at 28.5 h, 10 µM came out at 108%. Same read-out and setting: the result for `CCn1cc(Cl)c(C(=O)NC2CCN(c3cc(C)n[nH]3)CC2)n1` [CBK304322] reads 91.8%; that for `Nc1ncc(-c2cccc(-c3ccccc3)c2)nc1NCc1cccnc1` [CBK063491], 93.5%.

Turning to `CC(Sc1nc(C2CC2)n(-c2ccccc2)n1)C(=O)N1CCNC1=O` (centres unmarked) [CBK297144], the viability at 28.5 h, 10 µM was found to be 97.2%. Same read-out and setting: for `COC(=O)N1CC2(CCCCC2NCCC(F)(F)F)c2ccccc21` (centres unmarked) [CBK083539T] the value was 90%; for `O=C(O)c1cccc(S(=O)(=O)Nc2nc3c(Cl)cccc3s2)c1` [CBK161135], 96.5%. In the case of `O=C(N/N=C/c1ccc([N+](=O)[O-])cc1)c1ccc(O)cc1O` [CBK261591], the viability at 28.5 h, 10 µM worked out at 105%. Still for that read-out and setting: the result for `COCCNC(=O)N1CCCC(CO)C1` (centres unmarked) [CBK156040] reads 88.3%; that for `COc1cccc(NS(=O)(=O)c2cc(CC(=O)O)ccc2OC)c1` [CBK298333], 93.9%; that for `CCC(C)N1CCN(S(=O)(=O)c2ccccc2[N+](=O)[O-])CC1` (centres unmarked) [CBK264270G], 97.2%. Turning to `Cc1cc2c(cc1S(=O)(=O)NCCOc1cccc(C(=O)O)c1)OCC(=O)N2` [CBK299770], the viability at 28.5 h, 10 µM is 88.3%. In the case of `CCN(Cc1ccncc1)C(=O)NCCc1ccc(OC)cc1` [CBK155149], the viability at 28.5 h, 10 µM is 94.6%. Regarding `Cn1ncc(N2CCN(C(=O)CCN3CCCCCC3=O)CC2)cc1=O` [CBK306508], the viability at 28.5 h, 10 µM came to 109%. Still for that read-out and setting: the result for `O=C(Nc1nc2ccccc2s1)c1cc([N+](=O)[O-])ccc1Cl` [CBK072428] reads 85.9%; that for `c1cncc(CN2CCCN(c3nccc(OCC4COc5ccccc5O4)n3)CC2)c1` (centres unmarked) [CBK083969], 112%; that for `CN1CCN(c2nc3ccccn3c(=O)c2/C=C2\SC(=S)N(CCc3ccccc3)C2=O)CC1` [CBK263131], 110%. In the case of `CN(C)CCN(Cc1ccncc1)Cc1cc(F)cc(F)c1` [CBK283096], the viability at 28.5 h, 10 µM amounted to 94.9%. `O=C(O)CCCc1nc(-c2ccccn2)no1` [CBK010880]: the viability at 28.5 h, 10 µM was found to be 94.8%. On the same count and under the same terms, for `COc1ccc(-c2cnn3c(N)c4c(nc23)CCC4)cc1` [CBK287987] the value was 97.4%; for `O=C(NCc1csc2c1CCCC2)N1CCCC(c2cc(O)ncn2)C1` (centres unmarked) [CBK306705], 99.3%.

On to `CN1CCCc2cc(CN3CCC4(CCCNC4=O)CC3)ccc21` [CBK284876], for which the viability at 28.5 h, 10 µM worked out at 101%. Turning to `Cn1c(CN2CCN(c3ccc(C#N)cc3)CC2)nnc1[C@H]1C[C@@H](N)C1` [CBK306985], the viability at 28.5 h, 10 µM is 109%. For the compound `CCC1(C)CC(C(CCN)c2ccc(C)cc2)CCO1` (centres unmarked) [CBK027350], the viability at 28.5 h, 10 µM stood at 98.8%.

Take `O=C(CC1Nc2ccccc2NC1=O)Nc1ccc(F)c(Cl)c1` (centres unmarked) [CBK266381]: the viability at 28.5 h, 10 µM was found to be 97%.

Turning to `O=C(NCCO)c1ccc(-c2cnc3[nH]c(=O)n(C4CCOCC4)c3n2)cc1` [CBK065041], the viability at 28.5 h, 10 µM worked out at 108%. With `CC(=O)N1CCC2(CC1)OCc1cc(-c3cccc4cccnc34)ccc1O2` [CBK060969], the viability at 28.5 h, 10 µM (bulk resorufin, single well) amounted to 88.4%. As to `CNC(=O)c1cnn2c(C)c(Cc3cccnc3)c(C)nc12` [CBK162165], the viability at 28.5 h, 10 µM was found to be 78.2%. The same measure, in the same setting: for `O=C(CCC1CCCC1)Nc1nnc[nH]1` [CBK266406] the value was 100%; for `Cc1ccc(S(=O)(=O)NCCNc2ccc(C(F)(F)F)cc2[N+](=O)[O-])cc1` [CBK264945], 90.4%; for `Cc1nn(-c2ccccc2)c(Cl)c1C1NC(=O)c2c(sc(C)c2C)N1` (centres unmarked) [CBK288086], 96%.

As to `CCCCCOc1ccc(-c2ccc(Cl)nn2)cc1` [CBK007044], the viability at 28.5 h, 10 µM was determined as 83.7%.

As for `Cn1nnc2cc(NC(=O)NCc3csc(N4CCOCC4)n3)ccc21` [CBK307492], the viability at 28.5 h, 10 µM was 94.2%. `COc1cc(C=c2sc(=CC(=O)C(C)(C)C)[nH]c2=O)ccc1OCC(=O)O` [CBK296948]: the viability at 28.5 h, 10 µM is 104%. Still for that read-out and setting: for `CC(=O)C1=C(c2ccccc2)NC(=S)NC1c1cc(Cl)ccc1OCC(=O)O` (centres unmarked) [CBK267300] the value was 99.4%. On the same count and under the same terms, for `N#Cc1c(N)nc2c(c1-c1ccc(Cl)cc1)CCCCCCCCCC2` [CBK262322] the value was 90.6%; for `O=C(O)CCc1ccc(-c2ccc(N3CCN(CCN4CCCC4)CC3)nc2)cc1` [CBK037796], 103%; for `CCc1ccc(CN(C)C(=O)COC(=O)c2cc(-c3ccccc3)nc3onc(C)c23)cc1` [CBK295334], 89.5%. Still for that read-out and setting: the result for `Cn1c(=O)c2c(O)cc(=O)oc2c2ccccc21` [CBK003546] reads 93.3%; that for `Cc1ccccc1CN1CCN(CC2CC3C=CC2C3)CC1` (centres unmarked) [CBK263402], 88%; that for `N#C/C(=C\c1ccc(OCC(=O)c2ccccc2)cc1)c1nc(-c2cccs2)cs1` [CBK266765], 95.3%.

Turning to `CC(C)[C@@H](CO)Nc1nccnc1-c1ccc(CN)cc1` [CBK036640], the viability at 28.5 h, 10 µM stood at 104%. With `Cc1noc(C)c1CN1CCC(c2ccccc2)CC1` [CBK306001], the viability at 28.5 h, 10 µM came to 89.9%. On the same count and under the same terms, the result for `O=c1oc(-c2cccnc2)nn1Cc1ccccc1F` [CBK283774] reads 87.1%; that for `O=C(CSc1ncnc2c1oc1ccccc12)NC1CCCC1` [CBK287788], 99.4%. Same read-out and setting: for `Cc1nn(C)c(C)c1C1CCCN1CC(=O)NCc1ccccn1` (centres unmarked) [CBK305501] the value was 94.9%; for `NC(=O)c1cccnc1N1CCN(CCCN(c2ccc(F)cc2)c2ccc(F)cc2)CC1` [CBK025341C], 110%; for `COc1ccc(OC)c(-c2nc(Nc3ccccc3Cl)sc2CC(=O)O)c1` [CBK264190], 96.4%.
